# US20040029808A1, “Peptides capable of functioning as mimotopes for hormonal analytes” (priority 2000, published 2004)
# Ends that are not written are not given here.
# System: MAb4155 (anti-estrone-3-glucuronide monoclonal antibody)
# Assay: ELISA testing of peptides on pins: binding of MAb4155 to peptides
# Design: species or system mouse
# Conditions: D-isomer reverse sequence versus L-isomer parent
row,Binding affinity relative to the parent sequence (SEQ ID NO:28),Substance
1,equivalent,Asp-Tyr-Phe-Leu-Gly (DYFLG) [SEQ ID NO:37]

# System: MAb4155 (anti-estrone-3-glucuronide monoclonal antibody)
# Assay: as above
# Design: species or system mouse
# Conditions: Table 1; peptides on pins based on SEQ ID NO:2 (truncations, Ala/Gly replacement)
# Method: Monoclonal antibodies MAb 4155 were expressed from the 4155 monoclonal cell line. The 4155 monoclonal cell line was prepared and screened according to the methods described by Gani et al., (3 Steroid Biochem. Molec. Biol. 48, 277-282 (1994)).
# Peptides were synthesised in duplicate or triplicate from the C-terminus by solid phase peptide synthesis on the heads of polyethylene pins (Geysen et al., Strategies for epitope analysis using peptide synthesis. J. Immunol. Methods 102, 259-274 (1987)) using a Multipin Peptide Synthesis Kit (Chiron Mimotopes, Victoria, Australia). Pins were arranged in a plastic holder in the format of a 96-well microtitre plate.
# All incubation steps were performed at room temperature (18-25° C.) by lowering the pins reagents dispensed into 96-well microtitre plates (Becton Dickinson, Calif., USA). Washing was accomplished by placing the block of pins in a bath of phosphate buffered saline (PBS) containing Tween 20™ (0.01% v/v) with agitation for four cycles of 5 min. Non-specific binding sites on the surface of the pins were blocked by incubating in PBS containing casein (1% w/v, 175 μl/well) for 1 h. MAb4155 was diluted in blocking buffer and the pins were incubated in the antibody solution (150 μl/well) for 18 h at 4° C. After washing, the pins were incubated in horseradish peroxidase (HRP)-conjugated rabbit anti-mouse immunoglobulin (Dako, High Wycombe, UK, 1/1000 in blocking buffer for 1 h at 150 μl/well). The pins were washed once more and then incubated in ABTS [2,2′-azino-bis (3ethylbenzothiazoline-6-sulphonic acid)] working substrate for 15 min (150 μl/well). ABTS was prepared as a 0.033% (w/v) solution in 0.1M citrate phosphate buffer (pH 4.5) with 33% hydrogen peroxide (1 μl/ml). Colour development was terminated by removal of the pins from the wells and was measured spectrophotometrically at 405 nm using a Milenia Kinetic Analyser™ (DPC, Llanberis, Wales).
# In order to identify core binding regions, a set of peptides was synthesised on the heads of pins based on SEQ ID NO:2. […] In addition, a set of peptides was synthesised in which each residue of the lead sequence was replaced by Ala (or Gly if Ala already existed at that position) in order to assess the contribution of each residue to the binding event.
# Additional core binding sequences were identified utilizing the amino acid sequence SEQ ID NO:8 and investigating the effect of systematic replacement of each residue by the other 19 naturally occurring amino acids using known techniques as exemplified in Verhoeyen et al., Construction of a reshaped HMFG1 antibody and comparison of its fine specificity with that of the parent mouse antibody. Immunology, 78, 364-370 (1993).
row,Substance,Relative Binding of MAb4155 to peptides as measured by ELISA
1,AGERGLFED [SEQ ID NO:13],2.0
2,AAEAGLFED [SEQ ID NO:15],2.0
3,AAERGLF [SEQ ID NO:72],1.0
4,GAERGLFED [SEQ ID NO:12],1.9
5,Leu-Phe-Glu-Asp (LFED) [SEQ ID NO:7],1.9
6,AAERGAFED [SEQ ID NO:17],1.6
7,AAERALFED [SEQ ID NO:16],1.5
8,AAARGLFED [SEQ ID NO:14],1.5
9,Ala-Ala-Glu-Arg-Gly (AAERG) [SEQ ID NO:74],1.0
10,AAERGLFEA [SEQ ID NO:80],1.1
11,Gly-Leu-Phe-Glu-Asp (GLFED) [SEQ ID NO:8],2.2

# The remaining lines, values ahead:
row,Relative Binding of MAb4155 to peptides as measured by ELISA,Substance
1,1.5,AERGLFED [SEQ ID NO:11]
2,1.8,AAERGLFAD [SEQ ID NO:79]
3,1.0,AAERGL [SEQ ID NO:73]
4,0.9,Ala-Ala-Glu (AAE) [SEQ ID NO:76]
5,2.0,AAERGLFED [SEQ ID NO:2]
6,0.8,Ala-Ala-Glu-Arg (AAER) [SEQ ID NO:75]
7,0.8,AAERGLAED [SEQ ID NO:78]
8,1.6,RGLFED [SEQ ID NO:9]
9,2.0,Phe-Glu-Asp (FED) [SEQ ID NO:6]
10,1.8,ERGLFED [SEQ ID NO:10]
11,1.0,AAERGLFE [SEQ ID NO:71]

# Same assay, conditions: Table 2; replacement analogues of SEQ ID NO:8, setting SEQ ID NO:8 to a Relative Binding of 100
row,Substance,Relative Binding of MAb4155 to peptides as measured by ELISA
1,Gly-Leu-Phe-Glu-Phe (GLFEF) [SEQ ID NO:30],204
2,Gly-Trp-Phe-Glu-Asp (GWFED) [SEQ ID NO:19],343
3,Gly-Leu-Phe-Glu-Leu (GLFEL) [SEQ ID NO:32],168
4,Gly-Leu-Phe-Glu-Trp (GLFEW) [SEQ ID NO:34],594
5,Gly-Leu-Trp-Glu-Asp (GLWED) [SEQ ID NO:21],207
6,Gly-Leu-Phe-Leu-Asp (GLFLD) [SEQ ID NO:26],138
7,Gly-Leu-Phe-Glu-Asp (GLFED) [SEQ ID NO:8],100

# Now from value to substance:
row,Relative Binding of MAb4155 to peptides as measured by ELISA,Substance
1,220,Gly-Tyr-Phe-Glu-Asp (GYFED) [SEQ ID NO:20]
2,578,Gly-Leu-Phe-Trp-Asp (GLFWD) [SEQ ID NO:27]
3,296,Gly-Leu-Phe-Glu-Cys (GLFEC) [SEQ ID NO:29]
4,386,Gly-Leu-Phe-Glu-Tyr (GLFEY) [SEQ ID NO:35]
5,335,Gly-Leu-Phe-Cys-Asp (GLFCD) [SEQ ID NO:22]
6,200,Gly-Phe-Phe-Glu-Asp (GFFED) [SEQ ID NO:18]
7,252,Gly-Leu-Phe-Tyr-Asp (GLFYD) [SEQ ID NO:28]
8,121,Gly-Leu-Phe-Asp-Asp (GLFDD) [SEQ ID NO:23]
9,169,Gly-Leu-Phe-Ile-Asp (GLFID) [SEQ ID NO:25]
10,177,Gly-Leu-Phe-Glu-Val (GLFEV) [SEQ ID NO:33]
11,174,Gly-Leu-Phe-Glu-Ile (GLFEI) [SEQ ID NO:31]
12,184,Gly-Leu-Phe-Phe-Asp (GLFFD) [SEQ ID NO:24]
